Patent US20190010461A1, “HUMAN PLURIPOTENT STEM CELL-BASED SCREENING FOR SMOOTH MUSCLE CELL DIFFERENTIATION AND DISEASE” (Wisconsin Alumni Research Foundation, priority 2017, published 2019)
Where a name gives a salt, the structure may show the parent alone.

Test system: Human pluripotent stem cell cells (H1)
Assay: Mesoderm differentiation of H1 cells in E8BAC medium
Assay type: cell-based
Details: CHIR99021 increased to 3 μM (from 1 μM)
Procedure: The cells reached 80-90% confluency two days later. At the day of the differentiation, ES cells were dissociated by […] (Invitrogen) for 3-5 min at 37 ° C. The cells were plated on a […]-coated plate at 1:4 ratios (1×10^5 cells/cm2). […] An increased CHIR99021 concentration of 3 μM decreased cell proliferation at 36 hours but increased MYH11 expression. At 36 hours, the cells were passaged and seeded on a new […]-coated plate (1.6×10^4 cells/cm2). The low cell density is critical for the differentiation. […] […] (E6 medium+5 μM RESV) medium supplemented with RepSox (25 μM), was then used to further mature SMCs from day 12 to 24. Cells were split (1×10^5 cells/cm2) at day 16 and further differentiated until day 24. The cells can be cryopreserved at day 16 or day 24. […] From day 0-4: medium was changed every day. From day 2-24: medium was changed every other day. For day 1 and day 8-24, 1.5×volumes of medium, compared to the normal volume used in the well, were used.

| Structure (SMILES) | MYH11 expression | cell proliferation at 36 hours |
| --- | --- | --- |
| Cc1c[nH]c(-c2cnc(NCCNc3ccc(C#N)cn3)nc2-c2ccc(Cl)cc2Cl)n1 [CHIR99021] | increased | decreased |

Test system: MYH11-Tom+ cells
Assay: Flow cytometric analysis of MYH11-Tom+ cells in SMC differentiation
Assay type: cell-based, human
Details: with RepSox 25 μM; DAPT 20 μM, DBZ 10 μM, RO04929097 10 μM; day 10-16
Procedure: Data are represented as mean±standard deviation (SD). […] Scale bar=1 mm. […] Scale bar=50 μm. […] Data are represented as mean±SD. Student's t-test, *: P<0.05, n=3.
FIGS. 7A-7G show the target of RepSox. […] Cells were treated with RepSox (25 μM) or SiRNA. […] Cells were treated with RepSox (25 μM) or SiRNA. […] During the smooth muscle cells differentiation, cells were treated with or without RepSox from day 10-11. […] During the smooth muscle cells differentiation, cells were treated with RepSox for 1 or 20 hours at day 12. […] Cells were treated with RepSox and non-targeting control (NT)/SiRNA at day 10. The RNA was isolated at day 14.
Optimized smooth muscle cell differentiation—Human pluripotent stem cell cells (H1) were cultured in E8 medium on a […]™-coated plate. To achieve the best differentiation results, ES cells were split using EDTA at 1:4 ratios two days before the differentiation. The cells reached 80-90% confluency two days later. At the day of the differentiation, ES cells were dissociated by ACCUTASE™ (Invitrogen) for 3-5 min at 37 ° C. The cells were plated on a […]™-coated plate at 1:4 ratios (1×10^5 cells/cm2). […] An increased CHIR99021 concentration of 3 μM decreased cell proliferation at 36 hours but increased MYH11 expression. At 36 hours, the cells were passaged and seeded on a new […]™-coated plate (1.6×10^4 cells/cm2). The low cell density is critical for the differentiation. A cell density of 1.0-4.0×10^4 cells/cm2 for different cell lines can be tested, such that 100% cell confluence will be achieved at day 6, which gives rise to the best differentiation efficiency. The cells were treated with E6T medium (E8 medium minus FGF2 but still containing 1.7 ng/ml TGF-β1) for 18 hours to induce the transient and medium level expression of MEOX1. E5F medium (E8 medium minus insulin and TGF-β1, but still containing 100 ng/ml FGF2) was used to suppress MEOX1 expression for another 5 days (days 3-8). Next, the cells were treated with E6FVR medium (E6 medium with 100 ng/ml FGF2, 50 ng/ml VEGFA, and 5 μM RESV, a NOTCH agonist) to induce SMC progenitors from day 8-12. E6R (E6 medium+5 μM RESV) medium supplemented with RepSox (25 μM), was then used to further mature SMCs from day 12 to 24. Cells were split (1×10^5 cells/cm2) at day 16 and further differentiated until day 24. The cells can be cryopreserved at day 16 or day 24. For P-SMCs, T-SMCs, and PT-SMCs, RepSox was replaced by PDGF-BB (10 ng/ml), TGF-β1 (1.7 ng/ml), or combination of PDGF-BB and TGF-β1, respectively, from day 12 to 24. From day 0-4: medium was changed every day. From day 2-24: medium was changed every other day. For day 1 and day 8-24, 1.5×volumes of medium, compared to the normal volume used in the well, were used. […]

| Structure (SMILES) | effect on RepSox improvement of MYH11-Tom+ cell differentiation |
| --- | --- |
| C[C@H](NC(=O)Cc1cc(F)cc(F)c1)C(=O)N[C@H](C(=O)OC(C)(C)C)c1ccccc1 [DAPT] | abolished |
| C[C@H](NC(=O)Cc1cc(F)cc(F)c1)C(=O)N[C@@H]1C(=O)N(C)c2ccccc2-c2ccccc21 [DBZ] | abolished |
| CC(C)(C(=O)NCC(F)(F)C(F)(F)F)C(=O)N[C@@H]1C(=O)Nc2ccccc2-c2ccccc21 [R04929097] | abolished |

Test system: intimal hyperplasia
Assay: not given
Details: DeRose 1999; Gulkarov 2009; Sawada 2000; cited from earlier work

| Structure (SMILES) | inhibition of intimal hyperplasia in previous studies |
| --- | --- |
| CCO.N#CC(=C(/N)Sc1ccccc1N)/C(C#N)=C(\N)Sc1ccccc1N [UO126, U0126-EtOH] | inhibit intimal hyperplasia |
| C[C@@H](N)[C@H]1CC[C@H](C(=O)Nc2ccncc2)CC1 [Y27632] | inhibit intimal hyperplasia |
| CC1=C(/C=C/C(C)=C/C=C/C(C)=C/C(=O)O)C(C)(C)CCC1 [retinoic acid, All-Trans Retinoic Acid] | inhibit intimal hyperplasia |

Test system: endothelium repair
Assay: not given
Details: Prasad 2005; Zheng 2014; cited from earlier work

| Structure (SMILES) | effect on endothelium repair |
| --- | --- |
| CO[C@H]1C[C@@H]2CC[C@@H](C)[C@@](O)(O2)C(=O)C(=O)N2CCCC[C@H]2C(=O)O[C@H]([C@H](C)C[C@@H]2CC[C@@H](O)[C@H](OC)C2)CC(=O)[C@H](C)/C=C(\C)[C@@H](O)[C@@H](OC)C(=O)[C@H](C)C[C@H](C)/C=C/C=C/C=C/1C [rapamycin] | suppressed |

Test system: MYH11 promoter-driven luciferase activity
Assay: High-throughput screening, MYH11-Nluc-2A-Tom reporter human ES cell line, luciferase assay
Assay type: cell-based
Details: small molecules added day 4-14; selected when normalized reads > average+3×STDEV
Procedure: FIGS. 1A-1C depict a schematic of high-throughput screening. […] The cells were passaged at day 4 and seeded on the 96-well plate for screening (2×10^6 cells/plate). After the reporter cell line was differentiated into mesoderm, small molecules were added to the cells from day 4 to day 14. FIG. 1B depicts the results of the screening in two batches. The luciferase assay results of individual small molecules were normalized to the average reads of all samples for each batch. The small molecules were selected for further analysis when the normalized reads were greater than “average+3×STDEV”. FIG. 1C depicts optimizing the concentration of the selected small molecules.
The cells were treated with 50 ng/ml FGF2 and 20 ng/ml BMP4 for another two days. The cells were passaged at day 4 and seeded on the 96-well plate for screening (2×10^6 cells/plate). The compounds were added from day 4-14. The Luciferase substrate (1000× dilution) (Nano-Glo Luciferase Assay system, Promega) was added to the medium for 15 min and luminescence was measured. An increase in luminescence indicates increased MYH11 expression, which is an indicator of the contractile smooth muscle cell phenotype. The Thomson custom stem cell Modulator 1, GSK-kinase inhibitor library, SellekChem Kinase inhibitor library, Analyticon NATx library, Prestwick Chemical Library, GlaxoSmithKline Protein Kinase Inhibitors, and part of Enamine Representative Diversity library were used for screening.
High-throughput screening directs contractile smooth muscle cell differentiation—The construction of the MYH11-NLuc-tdTomato human ES cell reporter line generated by CRISPR/Cas9 technology is described in FIGS. 6A-6H. The reporter cell line was differentiated into mesoderm in E8BAC medium (Zhang et al., 2017) for two days and treated with FGF2 and BMP4 to further mature mesoderm for another two days. The cells were then passaged into a 96-well plate and exposed to small molecules for 10 days using a customized robotic workstation (FIG. 1A). The workstation was designed through collaboration with TECAN, which enables us to perform the automatic high-throughput screening at specific time point and in long-term. The medium were changed every other day and the small molecules were added during the feeding. […] We then validated these hits and optimized their concentration.

| Structure (SMILES) | promotes MYH11+ SMC differentiation (increased MYH11 promoter-driven luciferase activity) |
| --- | --- |
| CC#CCn1c(N2CCC[C@@H](N)C2)nc2c1c(=O)n(Cc1nc(C)c3ccccc3n1)c(=O)n2C [BI-1356] | promotes MYH11^+ SMC differentiation |
| CNC(=O)c1cc(Oc2ccc(NC(=O)Nc3cc(C(C)(C)C)nn3-c3ccc4ncccc4c3)c(F)c2)ccn1 [DCC-2036, DCC-2036 (Rebastinib)] | promotes MYH11^+ SMC differentiation |
| CN(C)C(=O)OC1CNC(C#Cc2cc3ncnc(Nc4ccc(OCc5cccc(F)c5)c(Cl)c4)c3s2)C1 (stereo not shown) [GSK182497A] | promotes MYH11^+ SMC differentiation |
| COc1cc2ncnc(Nc3ccc4c(cnn4Cc4ccccc4)c3)c2cc1OC [GSK282449A] | promotes MYH11^+ SMC differentiation |
| COC(=O)Nc1nc2ccc(Sc3ccc(NC(=O)Nc4cc(C(F)(F)F)ccc4F)cc3)cc2[nH]1 [GSK607049C] | promotes MYH11^+ SMC differentiation |
| NC(=O)c1sc(-n2cnc3ccccc32)cc1OCc1ccccc1Br [GSK1023156A] | promotes MYH11^+ SMC differentiation |
| O=C(Nc1ccc(OC(F)(F)F)cc1)c1sccc1NCc1ccnc2ccccc12 [OSI-930] | promotes MYH11^+ SMC differentiation |
| O=C(O)C(Cc1c[nH]c2ccccc12)N1C(=O)c2ccccc2C1=O (stereo not shown) [RG108] | promotes MYH11^+ SMC differentiation |
| CCO.N#CC(=C(/N)Sc1ccccc1N)/C(C#N)=C(\N)Sc1ccccc1N [UO126, U0126-EtOH] | promotes MYH11^+ SMC differentiation |
| C[C@@H](N)[C@H]1CC[C@H](C(=O)Nc2ccncc2)CC1 [Y27632] | promotes MYH11^+ SMC differentiation |
| CC(C(=O)O)c1ccc(-c2ccccc2)c(F)c1 (stereo not shown) [flurbiprofen, Flurbiprofen] | promotes MYH11^+ SMC differentiation |
| NS(=O)(=O)c1cc2c(cc1C(F)(F)F)NCNS2(=O)=O [hydroflumethiazide, Hydroflumethiazide] | promotes MYH11^+ SMC differentiation |
| Cc1ccc(NC(=O)c2ccc(CN3CCN(C)CC3)cc2)cc1Nc1nccc(-c2cccnc2)n1 [imatinib, Imatinib Mesylate] | promotes MYH11^+ SMC differentiation |
| CC1=C(/C=C/C(C)=C/C=C/C(C)=C/C(=O)O)C(C)(C)CCC1 [retinoic acid, All-Trans Retinoic Acid] | promotes MYH11^+ SMC differentiation |
| N[C@@H](CC(=O)N1CCn2c(nnc2C(F)(F)F)C1)Cc1cc(F)c(F)cc1F [sitagliptin, Sitagliptin] | promotes MYH11^+ SMC differentiation |
| CNC(=O)c1cc(Oc2ccc(NC(=O)Nc3ccc(Cl)c(C(F)(F)F)c3)cc2)ccn1 [sorafenib, Sorafenib (Nexavar)] | promotes MYH11^+ SMC differentiation |
| CC(=O)[N-]S(=O)(=O)c1ccc(N)cc1.O.[Na+] [sulfacetamide sodic hydrate, Sulfacetamide sodic hydrate] | promotes MYH11^+ SMC differentiation |
| Nc1ccc(S(=O)(=O)Nc2ccnn2-c2ccccc2)cc1 [sulfaphenazole, Sulfaphenazole] | promotes MYH11^+ SMC differentiation |
| N[C@@H]1C[C@H]1c1ccccc1 [tranylcypromine hydrochloride, Tranylcypromine hydrochloride] | promotes MYH11^+ SMC differentiation |
